Read-outs that look alike come from different tables or passages of the source.

Experiment [1] concerns dissociates of postnatal C57/BL mouse forebrain (neurospheres). The experiment in a line: Formation and growth of neurospheres in serum-free semi-solid methylcellulose medium with growth factors. In kind it is cell-based. Here is the method:
Preparation of single-cell suspensions and cloning in MC. Dissociates of postnatal (5-7 days old) C57/BL mouse forebrain (subependymal zone and hippocampus) were used to generate suspended clones under anchorage and serum withdrawal in semi-solid methyl cellulose (MC). The procedures were performed as previously described Kukekov et al., Glia 21:399-407, 1997; and Kukekov et al., Exp Neurol, 156:333-344, 1999, with some additional modifications. Brain samples (approximately 10 mm^3) were minced, transferred to a beaker containing a solution of 0.25% trypsin in 0.1 mM EDTA (mixture 4:1), and slowly stirred on a magnetic plate at roomm temperature for 15 minutes. After trituration through a plastic 5 ml pipette and a fire-polished Pasteur pipette, the dissociate was washed (5-8 times in 5 ml of medium) to eliminate cellular debris.
The resultant suspension was filtered through sterile gauze, and verified to contain only single cells which were counted with a hemocytometer. Finally, cells were resuspended in 0.8% MC-based medium (NeuroCult medium, Cat. #03237, StemCell Technologies, Vancouver, BC) and plated at a clonal density (i.e., about […]) in 6-well plates coated with a non-adhesive substrate, i.e., poly 2-hydroxyethyl methacrylate (poly-HEME, Sigma) according to the manufacturer's instructions. Cells were maintained in a 37° C. incubator with 95% air, 5% CO2, and 100% humidity. Clones became visible under an inverted phase microscope approximately one week after plating.
Morphometric analysis of neurospheres. The number and diameters of neurospheres was assessed using an inverted phase microscope equipped with a size covering net. The number of neurospheres in each experimental group was normalized to the protein content. Aliquots of suspensions were removed for protein measurement using Pierce BCA protein Kit (Pierce, Rockford, Ill.) according to the manufacturer's instructions. Measurements were taken following one, two and three weeks of growth in vitro.
Using the above-described methods, dissociates of postnatal(5-7 days old) C57/BL mouse forebrain, (subependymal zone and hippocampus) were used to generate suspended clones under anchorage and serum withdrawal in semi-solid MC (MC-clones) Equal amounts of dissociates were placed in serum-free DMEM/F12, 1:1 medium supplemented with 0.8% MC and insulin (NeuroCult medium, Cat. #03237, StemCell Technologies, Vancouver, BC) in the presence of (i) 10 ng/ml EGF plus 10 ng/ml FGF2, (ii) 10 μM LPA alone and (iii) EGF+FGF2 in combination with LPA. Growth factors, i.e., EGF, FGF2 were obtained from Peprotech, Inc., and LPA was obtained from LPA-Avanti Polar Lipids, Inc. Freshly prepared aliquots of EGF and FGF2 were added every 3 days during a 21 day interval of clone (neurosphere) generation. The numbers and diameters of neurospheres were measured at the end of the third week in vitro.
Using methods described above, cells were recovered after complete dissociation of mouse forebrain to single cells and plated at a density of ˜10^4 cells/well in serum free semi-solid methylcellulose medium containing growth factors, ie., 10 μM oleoyl (C18:1) LPA, or 10 ng/ml each of EGF and FGF2. […] Neurosphere growth persisted during the second week in semi-solid medium continuously supplemented with LPA or EGF+FGF2 (FIG. 1B).

For experiment [2], the system named is neurospheres (AC133 and Sca-1 antigens). The experiment in a line: Immunocytochemical staining of neurospheres grown in the presence of LPA. Type of experiment: cell-based, mouse. As to the method:
Neurospheres were grown in suspension in the presence of LPA for 18 days, then transferred onto cover slips coated with laminin and poly-L-ornithine. The neurospheres attached within 6 hours and were allowed to spread and differentiate for an additional 48 hours. Cover slips were then fixed and processed for immunostaining. Antibodies used in these studies included antibodies against AC133 antigen (Miltenyi Biotech) and Sca-1 antigen (BD Pharmingen), against LPA receptors LPA1, LPA2 and LPA3 Exalpha Biologicals Inc., Antibody Solutions), βIII-tubulin (ovance, Inc.), and nestin (Chemicon, Inc.), CNPase (Sigma). To study the effect of LPA on differentiation of neurospheres, in some cases double immunostaining of LPA receptors and neuronal markers was performed. Results were analyzed using confocal microscopy. Visualization of the proteins was performed by two-color fluorescent dye labeling (i.e., red-Texas Red, green-Alexa Green) and subsequent analysis in laser confocal microscope appropriately equipped with filters of different wavelengths. The images were taken at the same gain setting for each filter within one experimental set. As an example, referring to FIG. 2A, B, the presence of AC133 antigen was detected by red fluorescence and that of Sca-1 by green fluorescence using separate wavelength visualization. AC133/Sca-1 co-localization was detected as yellow fluorescence using dual wavelength visualization (shown in right column of FIG. 2).
Neurospheres were grown using methods described above in the presence of LPA in semi-solid medium for two weeks. Aliquots of neurospheres were then removed and placed onto glass cover slips coated with laminin/poly-L-ornithine. Fresh medium without methyl cellulose and FBS (10% final) were added to initiate neurosphere adherence to the cover slip surface. The neurospheres became completely attached within 4 to 6 hours after transfer. […]
Cover slips were then fixed, stained with antibodies against AC133, Sca-1, LPA1, LPA2 and LPA3 receptors and analyzed using immunofluorescent techniques, as described above. […]

The target of another experiment is T1, LPA3 receptor (Homo sapiens, UniProt Q9UBY5).
T1 sequence (Q9UBY5 1-353): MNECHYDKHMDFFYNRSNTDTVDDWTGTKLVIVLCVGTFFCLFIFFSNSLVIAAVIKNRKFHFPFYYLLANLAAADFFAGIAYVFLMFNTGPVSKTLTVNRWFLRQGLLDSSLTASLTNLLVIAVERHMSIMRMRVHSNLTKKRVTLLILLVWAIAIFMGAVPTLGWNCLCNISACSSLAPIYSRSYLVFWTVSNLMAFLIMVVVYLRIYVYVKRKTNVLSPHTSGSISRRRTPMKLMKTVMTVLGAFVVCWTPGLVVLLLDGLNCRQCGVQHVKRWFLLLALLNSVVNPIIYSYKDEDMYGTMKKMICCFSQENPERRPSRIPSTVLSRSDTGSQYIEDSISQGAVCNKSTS
The conditions noted are these: cited from earlier work.

In the next experiment the target is LPA1 receptor (Homo sapiens, UniProt Q92633). Particulars: high concentration; cited from earlier work.
The test system of experiment [3] is LPA-induced formation of neurospheres. Particulars: for size of neurospheres generated by LPA: 2 weeks (FIG. 1C); for numbers of neurospheres formed: 2 weeks (FIG. 1D). As to the method:
In (C, D), neurospheres were maintained in culture for 2 weeks in the presence of LPA alone or LPA plus 1 μM or 50 μM DGPP. The number/field and the size of at least 200 neurospheres formed at 2 weeks were counted. The results are presented as mean +SEM of three independent experiments from four different neurosphere preparations. Unpaired Student's t-test was used to assess significance of the mean difference, and F test was used to compare variances.
To examine the potential involvement of LPA receptors in the LPA-induced formation of neurospheres, the effect of DGPP at low concentration (i.e., 1 μM) and high concentration (i.e., 50 μM) was compared.

Where [4] appears, read: 10 μM LPA or 10 ng/ml each EGF and FGF2.
Setting [5] is: grown two weeks in LPA, attached to cover slips.

LPA1 receptor, sequence (Q92633 whole entry): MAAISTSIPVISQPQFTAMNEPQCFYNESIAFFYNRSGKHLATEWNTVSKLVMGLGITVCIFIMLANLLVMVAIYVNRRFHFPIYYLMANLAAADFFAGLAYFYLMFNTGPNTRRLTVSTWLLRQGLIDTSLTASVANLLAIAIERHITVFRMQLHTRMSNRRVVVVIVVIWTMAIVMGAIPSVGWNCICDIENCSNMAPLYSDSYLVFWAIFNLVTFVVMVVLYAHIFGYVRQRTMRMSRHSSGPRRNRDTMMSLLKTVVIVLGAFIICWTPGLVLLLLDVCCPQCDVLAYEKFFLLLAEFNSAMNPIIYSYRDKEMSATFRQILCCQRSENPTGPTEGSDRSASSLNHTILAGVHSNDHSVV

As to “1 -acyl-2-hydroxy-sn-glycero-3-phosphate [LPA]”, in experiment [1] (setting [4]), the “diameter of neurospheres, Maximum” value came to 204; the “diameter of neurospheres, Median” value came out at 72.25; the “diameter of neurospheres, Minimum” value was determined as 14.1; the “diameter of neurospheres, Mode” value is reported as 55.4. Besides, in experiment [1] (setting [4]), the “number of neurospheres per field (Count)” value was found to be 220. The “diameter of neurospheres, Mean” value in experiment [1] (10 μM LPA or 10 ng/ml each EGF and FGF2, serum-free methylcellulose medium) was found to be 79.54 μm. Besides, in experiment [1] (continuous supplementation with growth factor), the “time for which neurosphere development was sustained” value is “up to 3 months”. The formation of neurospheres result in experiment [1] (first week in culture, 10 μM oleoyl LPA or 10 ng/ml each EGF and FGF2) is on record as “formed distinguishable neurospheres”. In addition, in experiment [2] (grown attached in the presence of the growth factor), the “Sca-1 antigen and AC133 in the residual core of neurospheres grown attached” value is on record as “still detected”. Besides, in experiment [2] (setting [5]), the “co-localization of AC133 and Sca-1 throughout the neurospheres” value is around 100%; the “expression of AC133 and Sca-1 antigens in neurospheres” value was “expressed both AC133 and Sca-1 antigens”.
In the case of `CCCCCCCC(=O)OC[C@H](COP(=O)(O)OP(=O)(O)O)OC(=O)CCCCCCC` [DGPP, diacyl-glycerol pyrophosphate], the “LPA activation of LPA3 receptor” value at LPA3 receptor (high concentration) was “blocks”. Moreover, at LPA3 receptor (low concentration), the “effect on LPA3 receptor” value was “preferentially inhibit”. Also, at LPA1 receptor, the “LPA activation of LPA1 receptor” value is recorded as “blocks”. Moreover, the “size of neurospheres generated by LPA” value in experiment [3] (DGPP 1 μM plus LPA) and in experiment [3] (DGPP 50 μM plus LPA) was “significantly reduced” throughout. The “numbers of neurospheres formed” value in experiment [3] (DGPP 1 μM plus LPA) is on record as “not”; in experiment [3] (DGPP 50 μM plus LPA, p=0.0056), “decreased considerably”. In addition, the “LPA-induced formation and growth of neurospheres” value in experiment [3] (concentration not given) is on record as “specifically inhibited”.
